Measured values taken from patent US6518036B1, “Method of permanent fluorescent assay” (Nen Life Science Products, Inc., priority 1999, dated 2003).

What was measured:
[1] = Fluorescent signal stability under continuous excitation (automatic exposure time, ASA 1600); assay type: physicochemical; settings: mouse brain section
Method: Sections of paraffin-embedded mouse brain were deparaffinized and non-specific binding sites were blocked by treatment for thirty minutes in PBS-BB. Monoclonal antibody against microtubule associated protein-2 (Sigma) was diluted 1:100,000 in PBS-BB and incubated on the sections overnight at 4° C. Sections were then washed in PBS (three×five minutes each wash) and incubated at room temperature for one hour with HRP-conjugated donkey anti-mouse antibodies (Jackson Immunoresearch Laboratories; West Grove, Pa.) diluted 1:1000 in PBS-BB. […]
The fluorescein labeled section was viewed with a filter set having excitation/emission peaks at 490 nm/520 nm. […] Photomicrographs using standard two second exposures were taken at both time points to assess changes in fluorescence intensity over time. In addition, fluorescence intensity was semi-quantitated at both time points by recording the automatic exposure time required for photomicrographic documentation in a standard field using an ASA setting of 1600 and the MC100 camera system (Zeiss). Using this measure, short exposure times correlate with bright-fluorescence and long exposure times with dim fluorescence.

[2] = target: Horseradish peroxidase (HRP) conjugated wheat germ agglutinin (Armoracia rusticana, UniProt P00433); settings: mouse intestine section
Method: Sections of paraffin-embedded mouse intestine were deparaffinized, and non-specific binding sites were blocked by treatment for thirty minutes in PBS-blocking buffer (PBS-BB) (0.1 M phosphate buffered saline, pH 7.2; 1.0% bovine serum albumin, 0.2% non-fat powdered milk; and 0.3% Triton X-100). Horseradish peroxidase (HRP) conjugated wheat germ agglutinin (Sigma; St. Louis, Mo.) at a concentration of 10 μg/ml in PBS-BB was incubated on the sections for one hour at room temperature. Sections were then washed in PBS (three×five minutes each wash) and Tris (0.1 M Tris, pH 8.5; three×three minutes each wash). N-(5-hydroxypentyl)-3-(p-hydroxyphenyl) propionamide (HHPA), 1 mg/ml in Tris containing 0.003% H2O2, was then added to the sections at room temperature for ten minutes. Sections were then washed in Tris (three×three minutes each wash) and mounted with Tris:Glycerol (1:1) and coverslipped. Sections were viewed with a Zeiss Axioskop microscope equipped with epifluorescence and filter sets with excitation/emission characteristics of 360 nm/>400 nm (blue-white fluorescence); 490 nm/520 nm (green fluorescence); and 550 nm/570 nm (red fluorescence). Sections were photographed with a Zeiss MC100 camera system.
Wheat germ agglutinin binds to N-acetylglucosamine residues present in abundance in intestinal mucin producing goblet cells. […] The microscopic field was then illuminated for one minute at 360 nm and reexamined as described above. […] Original magnifications 400×.

Horseradish peroxidase (HRP) conjugated wheat germ agglutinin, sequence (P00433 31-338 limits assumed): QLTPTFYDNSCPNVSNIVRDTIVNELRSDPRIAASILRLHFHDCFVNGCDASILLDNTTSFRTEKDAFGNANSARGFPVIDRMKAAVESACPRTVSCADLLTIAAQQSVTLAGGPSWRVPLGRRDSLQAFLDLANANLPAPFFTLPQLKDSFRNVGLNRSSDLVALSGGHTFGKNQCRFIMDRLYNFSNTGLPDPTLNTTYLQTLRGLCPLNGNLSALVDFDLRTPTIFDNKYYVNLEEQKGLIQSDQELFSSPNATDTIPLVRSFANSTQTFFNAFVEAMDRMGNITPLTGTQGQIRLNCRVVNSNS

## O=C(CCc1ccc(O)cc1)NCCCCCO [HHPA, N-(5-hydroxypentyl)-3-(p-hydroxyphenyl) propionamide]
[1]; after fifteen minutes of continuous excitation
  time required for a standard ASA 1600 exposure: 3.1 s
[1]; time zero, short exposure = bright fluorescence
  time required for a standard ASA 1600 exposure: 4.1 s
[2]; 360 nm excitation, before one minute illumination at 360 nm
  fluorescence signal, blue-white filter set: weak fluorescence signal
[2]; after one minute illumination at 360 nm, localized to goblet cells
  fluorescent signal, all three filter sets (blue-white, green, red): Intense fluorescent signals
[2]; before one minute illumination at 360 nm
  fluorescence signal, green or red filter sets: almost no signal
